These results are taken from patent US8940739B2, “Compound of a reverse-turn mimetic and a production method and use therefor” (JW Pharmaceutical Corporation, priority 2010, dated 2015).

A short description of data set [1]: MLM, hepatic metabolic stability. The class given is in vitro ADME. As to conditions: mouse hepatic microsome, amount at 30 minutes compared with 0 minutes. On the procedure: For the sake of retaining efficacy of novel drugs and preventing side-effects, hepatic metabolic stability is regarded as very important. Hepatic metabolic stability is typically determined using microsome or S9. In the present test, a microsome having CYP450 as a main component, which plays a great role in metabolism, was used to evaluate the metabolic stability.
This assay was performed in a 200 l volume in a 13 ml glass tube using mouse hepatic microsome whose activity was measured.
The compounds of Examples 1 to 5 were dissolved in DMSO (dimethyl sulfoxide) to prepare a 25 mM stock solution, which was then diluted with 50% acetonitrile and used in the test. A potassium phosphate buffer (pH 7.4, final concentration 0.1M), MgCl2 (final concentration 0.1M), a diluted inventive compound stock solution (final concentration 1 mM), and a mouse microsome (final concentration 5 mg/ml) were added to the glass tube. The reaction was initiated by the addition of a cofactor NADPH (final concentration 12.5 mM) after pre-incubation at 37 for 3 minutes. The reaction was carried out at 37 for 10 minutes and 30 minutes, and then terminated with 1000 μl of acetonitrile, and the remaining inventive compound was extracted. The centrifugation was conducted at 3000 rpm for 10 minutes, after which the supernatant was dried and dissolved again in 150 μl of 50% acetonitrile and quantitatively analyzed by HPLC. 0 minutes and 30 minutes after reaction, the amounts of the compounds of the present invention were compared thus evaluating the extent of metabolic stability.

Data set [2] deals with cDNA-expressed human hepatic CYP3A4 (Homo sapiens (Human), UniProt P08684). Nature of the data set: Measurement of CYP (IC50 of P450 CYP3A4), BFC substrate. Format: in vitro ADME. To be noted: 20 minutes. In outline:
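cDNA-expressed human CYP3A4 supersomes in 0.1M potassium phosphate pH 7.4 with 8.3 mM MgCl2, 1.67 mM EDTA and 0.25 mM NADPH; compounds in acetonitrile (<1% final). Reaction started with 30 µM BFC, 20 min at 37. 7-Hydroxy-4-trifluoromethyl-coumarin read by fluorescence (ex 409/em 530 nm).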

The test system of data set [3] is MV-4-11 (human, Acute Myeloid Leukemia cell line) cells. Nature of the data set: Cell growth inhibition assay, GI50 of MV-4-11. To be noted: Homo sapiens, MV4-11, 72 h, MV-4-11 cells. Format: cell-based. In a few lines: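 GI50 derived from 490 nm absorbance using CellTiter 96 Aqueous One reagent, with compound-free medium providing the background. Human AML MV-4-11 cells, seeded at 5×10^4 per well in IMDM/10% FBS, incubated 72 h at 37 °C with duplicate serial dilutions of test compound.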

Broadly, the IC50 is the concentration needed to halve the response being measured. A lower IC50 goes with greater potency. Broadly, the GI50 is the concentration at which growth is held to half of that of the control.

Molecules are shown by their SMILES.

cDNA-expressed human hepatic CYP3A4, sequence (P08684 whole entry): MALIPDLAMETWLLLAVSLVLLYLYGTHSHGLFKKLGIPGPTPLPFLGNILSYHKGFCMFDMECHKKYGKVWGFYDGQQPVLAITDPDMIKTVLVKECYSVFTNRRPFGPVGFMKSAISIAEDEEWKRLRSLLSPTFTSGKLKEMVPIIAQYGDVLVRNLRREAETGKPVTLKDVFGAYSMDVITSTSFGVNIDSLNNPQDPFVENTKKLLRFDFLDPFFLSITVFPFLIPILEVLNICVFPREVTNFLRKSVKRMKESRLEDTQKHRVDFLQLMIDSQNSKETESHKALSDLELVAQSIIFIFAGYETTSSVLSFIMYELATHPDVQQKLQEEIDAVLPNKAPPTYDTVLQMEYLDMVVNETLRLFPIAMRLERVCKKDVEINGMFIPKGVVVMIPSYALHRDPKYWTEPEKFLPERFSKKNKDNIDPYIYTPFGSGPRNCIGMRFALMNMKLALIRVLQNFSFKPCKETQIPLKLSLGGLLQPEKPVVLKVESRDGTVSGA

With `C=CCN1CC(=O)N2C(Cc3ccc(O)cc3)C(=O)N(Cc3cccc4c(C(=O)Nc5ccc(N6CCN(c7ccc(C(F)(F)F)cc7)CC6)nc5)cn(C)c34)CC2N1C(=O)NCc1ccccc1` (stereo not drawn) [Compound G-58], the “MLM (%)” value in data set [1] is 85.1%. Moreover, the half-inhibitory concentration (IC50) in data set [2] came out at 23700 nM.

For `C=CCN1CC(=O)N2[C@@H](Cc3ccc(O)cc3)C(=O)N(Cc3cccc4c(C(=O)NCCCC(=O)O)cn(C)c34)C[C@@H]2N1C(=O)NCc1ccccc1` [Compound F-24], the “MLM (%)” value in data set [1] is on record as 84.2%. The molecule also registered a 50% inhibitory concentration (IC50) in data set [2] above 25000 nM.

For `C=CCN1CC(=O)N2[C@@H](Cc3ccc(O)cc3)C(=O)N(Cc3cccc4c(C(=O)N5CCN(CCCN(C)C)CC5)cn(C)c34)C[C@@H]2N1C(=O)NCc1ccccc1` [Compound E-13], the “MLM (%)” value in data set [1] is on record as 89.1%. The IC50 in data set [2] was above 25000 nM.

Consider `C=CCN1CC(=O)N2[C@@H](Cc3ccc(O)cc3)C(=O)N(Cc3cccc4c(C(=O)N5CCC(N6CCN(C)CC6)CC5)cn(C)c34)C[C@@H]2N1C(=O)NCc1ccccc1` [Compound E-19], for which, in data set [1], the “MLM (%)” value came out at 73.4%. Also, in data set [2], the half-inhibitory concentration (IC50) is above 25000 nM.

In the case of `C=CCN1CC(=O)N2[C@@H](Cc3ccc(O)cc3)C(=O)N(Cc3cccc4c(C(=O)N5CCN(CC6CCNCC6)CC5)cn(C)c34)C[C@@H]2N1C(=O)NCc1ccccc1` [Compound E-23], the “MLM (%)” value in data set [1] stood at 73.8%. This molecule came in with a 50% inhibitory concentration (IC50) in data set [2] of 8170 nM.

For the molecule `C=CCN1CC(=O)N2[C@@H](Cc3ccc(O)cc3)C(=O)N(Cc3cccc4c(-c5ccc(C(=O)Nc6ccc(OC)cc6)cc5)cn(C)c34)C[C@@H]2N1C(=O)NCc1ccccc1` [Compound D-22], in data set [3], the GI50 stood at 4.2 nM. Also, in data set [2], the midpoint of inhibition, the IC50, lay at 19500 nM.

`C=CCN1CC(=O)N2[C@@H](Cc3ccc(O)cc3)C(=O)N(Cc3cccc4c(-c5ccc(NC(=O)c6ccc(N)cc6)cc5)cn(C)c34)C[C@@H]2N1C(=O)NCc1ccccc1` [Compound D-50]: the GI50 in data set [3] amounted to 2 nM. The molecule further came in with an IC50 in data set [2] above 25000 nM.

On to `C=CCN1CC(=O)N2[C@@H](Cc3ccc(O)cc3)C(=O)N(Cc3cccc4c(-c5ccc(NC(=O)N6CCOCC6)nc5)cn(C)c34)C[C@@H]2N1C(=O)NCc1ccccc1` [Compound D-88], for which the GI50 in data set [3] came out at 1.2 nM. Further, in data set [2], it took 10200 nM to reach half-maximal inhibition (IC50).

Take `C=CCN1CC(=O)N2[C@@H](Cc3ccc(O)cc3)C(=O)N(Cc3cccc4c(C(=O)NC5CCN(C(=O)OC(C)(C)C)CC5)cn(C)c34)C[C@@H]2N1C(=O)NCc1ccccc1` [Compound F-61]: in data set [3], the GI50 is 1.6 nM. In data set [2], this molecule registered a half-inhibitory concentration (IC50) of 5650 nM.

For `C=CCN1CC(=O)N2[C@@H](Cc3ccc(O)cc3)C(=O)N(Cc3cccc4c(C(=O)Nc5ccc(N6CCC(N7CCN(C)CC7)CC6)nc5)cn(C)c34)C[C@@H]2N1C(=O)NCc1ccccc1` [Compound G-57], the GI50 in data set [3] is 1.3 nM. 6320 nM corresponded to half-maximal inhibition in data set [2] (IC50).

As to `C=CCN1CC(=O)N2[C@@H](Cc3ccc(O)cc3)C(=O)N(Cc3cccc4c(C(=O)Nc5ccc(N(C)CCO)nc5)cn(C)c34)C[C@@H]2N1C(=O)NCc1ccccc1` [Compound G-18], in data set [3], the GI50 turned out to be 1.5 nM. The half-inhibitory concentration (IC50) in data set [2] amounted to 3450 nM.

In the case of `C=CCN1CC(=O)N2[C@@H](Cc3ccc(O)cc3)C(=O)N(Cc3cccc4c(C(=O)N5CC(N6CCN(C)CC6)C5)cn(C)c34)C[C@@H]2N1C(=O)NCc1ccccc1` [Compound E-71], the “MLM (%)” value in data set [1] is given as 67.2%. Also, in data set [2], the half-inhibitory concentration (IC50) was above 25000 nM.

Regarding `C=CCN1CC(=O)N2[C@@H](Cc3ccc(O)cc3)C(=O)N(Cc3cccc4c(C(=O)N5CCC(NC(=O)c6ccc(N(C)C)cc6)CC5)cn(C)c34)C[C@@H]2N1C(=O)NCc1ccccc1` [Compound E-59], the “MLM (%)” value in data set [1] is recorded as 58.5%. Besides, the IC50 in data set [2] is above 25000 nM.

Molecule `C=CCN1CC(=O)N2[C@@H](Cc3ccc(O)cc3)C(=O)N(Cc3cccc4c(C(=O)Nc5cnc(N6CCN(C(C)C)CC6)nc5)cn(C)c34)C[C@@H]2N1C(=O)NCc1ccccc1` [Compound G-47] displayed a GI50 in data set [3] of 2.3 nM. Moreover, in data set [2], it took 3670 nM to reach half-maximal inhibition (IC50).

`C=CCN1CC(=O)N2[C@@H](Cc3ccc(O)cc3)C(=O)N(Cc3cccc4c(-c5ccc(C(=O)Nc6cccc(C(N)=O)c6)cc5)cn(C)c34)C[C@@H]2N1C(=O)NCc1ccccc1` [Compound D-15] gave a 50% growth inhibitory concentration (GI50) in data set [3] of 2.8 nM. This molecule also returned a concentration for half-maximal inhibition (IC50) in data set [2] of 16000 nM.

Consider `C=CCN1CC(=O)N2[C@@H](Cc3ccc(O)cc3)C(=O)N(Cc3cccc4c(C(=O)NCCCCOC)cn(C)c34)C[C@@H]2N1C(=O)NCc1ccccc1` [Compound F-10], for which the concentration for 50% growth inhibition (GI50) in data set [3] was 15.1 nM. The molecule further showed an IC50 in data set [2] of 2010 nM.

Consider `C=CCN1CC(=O)N2C(CN(Cc3cccc4c(C(=O)Nc5ccc(N6CCN(C)CC6)nc5)cn(C)c34)C(=O)[C@@H]2Cc2ccc(O)cc2)N1C(=O)NCc1ccccc1` (stereo partly drawn) [Compound G-41], for which the concentration for 50% growth inhibition (GI50) in data set [3] amounted to 1.3 nM. Half-maximal inhibition in data set [2] (IC50) was put at 7600 nM.

For `C=CCN1CC(=O)N2C(Cc3ccc(O)cc3)C(=O)N(Cc3cccc4c(C(=O)Nc5ccc(NCCN6CCCCC6)nc5)cn(C)c34)CC2N1C(=O)NCc1ccccc1` (stereo not drawn) [Compound G-27], the GI50 in data set [3] was 2 nM. The half-maximal inhibitory concentration (IC50) in data set [2] was 2530 nM.

On to `C=CCN1CC(=O)N2[C@@H](Cc3ccc(O)cc3)C(=O)N(Cc3cccc4c(-c5ccc(C(=O)OC)cc5)cn(C)c34)C[C@@H]2N1C(=O)NCc1ccccc1` [Compound H-1], for which, in data set [3], the concentration for 50% growth inhibition (GI50) came to 15 nM. Inhibition in data set [2] was half-maximal at 3850 nM (IC50).

Regarding `C=CCN1CC(=O)N2[C@@H](Cc3ccc(O)cc3)C(=O)N(Cc3cccc4c(C(=O)N5CCOCC5)cn(C)c34)C[C@@H]2N1C(=O)NCc1ccccc1` [Compound E-3], the concentration for 50% growth inhibition (GI50) in data set [3] came out at 18.4 nM. Also, in data set [2], the IC50 is 3900 nM.

`C=CCN1CC(=O)N2C(CN(Cc3cccc4c(C(=O)Nc5ccc(CCO)cc5)cn(C)c34)C(=O)[C@@H]2Cc2ccc(O)cc2)N1C(=O)NCc1ccccc1` (stereo partly drawn) [Compound G-10]: it took 1.7 nM to inhibit growth in data set [3] by half (GI50). Moreover, inhibition in data set [2] was half-maximal at 7400 nM (IC50).

Consider `C=CCN1CC(=O)N2C(Cc3ccc(O)cc3)C(=O)N(Cc3cccc4c(-c5ccc(NC(=O)N6CCN(S(C)(=O)=O)CC6)nc5)cn(C)c34)CC2N1C(=O)NCc1ccccc1` (stereo not drawn) [Compound G-68], for which the concentration for 50% growth inhibition (GI50) in data set [3] is 2.2 nM. This molecule gave an IC50 in data set [2] of 6400 nM.

Turning to `C=CCN1CC(=O)N2[C@@H](Cc3ccc(O)cc3)C(=O)N(Cc3cccc4c(C(=O)Nc5ccc(N6CCCN(C)CC6)nc5)cn(C)c34)C[C@@H]2N1C(=O)NCc1ccccc1` [Compound G-67], the GI50 in data set [3] was determined as 1.3 nM. The IC50 in data set [2] was determined as 11200 nM.

As to `C=CCN1CC(=O)N2C(Cc3ccc(O)cc3)C(=O)N(Cc3cccc4c(C(=O)Nc5ccc(N6CCC(O)CC6)nc5)cn(C)c34)CC2N1C(=O)NCc1ccccc1` (stereo not drawn) [Compound G-37], the GI50 in data set [3] came out at 1.3 nM. Moreover, in data set [2], it took 6950 nM to reach half-maximal inhibition (IC50).

For the molecule `C=CCN1CC(=O)N2C(CN(Cc3cccc4c(C(=O)Nc5ccc(N6CCN(CC)CC6)nc5)cn(C)c34)C(=O)[C@@H]2Cc2ccc(O)cc2)N1C(=O)NCc1ccccc1` (stereo partly drawn) [Compound G-42], the GI50 in data set [3] was found to be 1.3 nM. In data set [2], this molecule gave an IC50 of 5730 nM.

For the molecule `C=CCN1CC(=O)N2[C@@H](Cc3ccc(O)cc3)C(=O)N(Cc3cccc4c(-c5ccc(NC(=O)NCCc6ccccc6)cc5)cn(C)c34)C[C@@H]2N1C(=O)NCc1ccccc1` [Compound D-75], the GI50 in data set [3] was 17 nM. Moreover, inhibition in data set [2] was half-maximal at 10500 nM (IC50).

In turn, `C=CCN1CC(=O)N2[C@@H](Cc3ccc(O)cc3)C(=O)N(Cc3cccc4c(C(=O)Nc5ccc(N6CC(N7CCC(OC)CC7)C6)nc5)cn(C)c34)C[C@@H]2N1C(=O)NCc1ccccc1` [Compound G-63] yielded a GI50 in data set [3] of 1.5 nM. In data set [2], this molecule came in with an IC50 of 2560 nM.
